Results published in patent publication US8618068B2, “Methods and low dose regimens for treating red blood cell disorders” (priority 2009, dated 2013).
Marks after values point to notes of the source that are not given here.

How the values were obtained:
in vivo [1] = assay: in vivo; design: species or system Sprague-Dawley rats; settings: rat; for NOAEL at 14 days: Sprague-Dawley
Procedure: […] With respect to the FOB measurements, the effect of DMB appeared to be more pronounced in females than males. […] However, decreased motor activity, reduced rectal temperature, direct limbic effects such as a deficit in visual tactile placing accuracy, ataxia, dragging of the hindlimbs in the open field, and decreased grip strength and neuromotor-neuromuscular deficits were only documented in the female rats at 600 mg/kg. In the male rats, these effects were present only in the animals treated with 1,000 mg/kg.

[2] = Dose range-finding embryo/fetal developmental toxicity in rabbits; type: in vivo, New Zealand White rabbits
Procedure: DMB was administered orally by gavage to 4 groups of 8 time-mated female New Zealand White rabbits once daily from gestation Days 7 through 20 at dosage levels of 50, 150, 300 and 600 mg/kg/day. […] All findings at necropsy occurred sporadically in single females, with similar frequencies in the control group and/or in a non dose-related manner and were considered incidental and unrelated to administration of DMB. Mean fetal weight in the 600 mg/kg/day group was 8.6% lower than the control group. Fetal weights in the 50, 150 and 300 mg/kg/day groups and fetal survival and external morphology at all dosage levels were unaffected by test article administration.

[3] = test system: β- and γ-globin gene promoters; assay: Double-luciferase reporter assay of γ-globin expression in GM979 cells; type: cell-based, murine
Excerpt: DMB was compared to arginine butyrate (AB) for its ability to induce y-globin expression in a double-luciferase reporter assay in murine erythroleukemia (GM979) cells transfected with the pLCR linked to the β- and γ-globin gene promoters linked to a different luciferase gene.

in vivo [4] = assay: in vivo; design: species or system Beagle dogs; settings: dog
Excerpt: Completed toxicology studies conducted with DMB include a single-dose toxicity study in Sprague-Dawley rats, escalating dose toxicity study in Beagle dogs, a repeat dose study of 14-Day duration in Sprague-Dawley rats and repeat-dose toxicity studies of 28-Day duration in Sprague-Dawley rats and Beagle dogs, and 26-Week studies in Sprague-Dawley rats and Beagle dogs. […] Reproductive toxicity studies include two dose-range finding studies, one in Sprague-Dawley rats, the other in New Zealand white rabbits. DMB was administered once a day (QD) orally via gavage; doses are expressed as the sodium salt. In addition, an array of genotoxicity studies were conducted with DMB.
Based on the results of this study, the NOEL for DMB in male and female Beagle dogs was 50 mg/kg/day; and the NOAEL for DMB in male and female Beagle dogs was at least 300 mg/kg/day, the highest dose administered over the 26-Week treatment period.

hERG channels = target: T1, hERG channels (Homo sapiens, UniProt Q12809); assay: hERG channel, voltage-clamped human embryonic kidney cells; type: cell-based; settings: concentrations up to 1 mM (138 μg/mL)
T1 construct: expressed in transfected cells
Procedure: Cardiovascular safety pharmacology assessments included an in vitro screen to evaluate the effects of DMB on cardiac ion channel and an in vivo evaluation of cardiovascular and hemodynamic effects in Beagle dogs. Electrophysiologic effects were evaluated in laboratory studies utilizing voltage-clamped human embryonic kidney cells transformed by adenovirus cDNA and transfected with cDNA in order to stably express the human ether a-go-go related gene (hERG). The effect on cellular hERG channels was evaluated at DMB concentrations up to 1 mM (138 μg/mL).

[5] = Dose range-finding embryo/fetal developmental toxicity in rats; type: in vivo
Procedure: DMB was administered orally by gavage to 4 groups of 8 bred female Sprague Dawley rats once daily from gestation Days 6 through 17, at dosage levels of 50, 150, 500 and 1000 mg/kg/day. […] On gestation Day 20, a laparohysterectomy was performed on each surviving female.

T1 sequence (Q12809 whole entry): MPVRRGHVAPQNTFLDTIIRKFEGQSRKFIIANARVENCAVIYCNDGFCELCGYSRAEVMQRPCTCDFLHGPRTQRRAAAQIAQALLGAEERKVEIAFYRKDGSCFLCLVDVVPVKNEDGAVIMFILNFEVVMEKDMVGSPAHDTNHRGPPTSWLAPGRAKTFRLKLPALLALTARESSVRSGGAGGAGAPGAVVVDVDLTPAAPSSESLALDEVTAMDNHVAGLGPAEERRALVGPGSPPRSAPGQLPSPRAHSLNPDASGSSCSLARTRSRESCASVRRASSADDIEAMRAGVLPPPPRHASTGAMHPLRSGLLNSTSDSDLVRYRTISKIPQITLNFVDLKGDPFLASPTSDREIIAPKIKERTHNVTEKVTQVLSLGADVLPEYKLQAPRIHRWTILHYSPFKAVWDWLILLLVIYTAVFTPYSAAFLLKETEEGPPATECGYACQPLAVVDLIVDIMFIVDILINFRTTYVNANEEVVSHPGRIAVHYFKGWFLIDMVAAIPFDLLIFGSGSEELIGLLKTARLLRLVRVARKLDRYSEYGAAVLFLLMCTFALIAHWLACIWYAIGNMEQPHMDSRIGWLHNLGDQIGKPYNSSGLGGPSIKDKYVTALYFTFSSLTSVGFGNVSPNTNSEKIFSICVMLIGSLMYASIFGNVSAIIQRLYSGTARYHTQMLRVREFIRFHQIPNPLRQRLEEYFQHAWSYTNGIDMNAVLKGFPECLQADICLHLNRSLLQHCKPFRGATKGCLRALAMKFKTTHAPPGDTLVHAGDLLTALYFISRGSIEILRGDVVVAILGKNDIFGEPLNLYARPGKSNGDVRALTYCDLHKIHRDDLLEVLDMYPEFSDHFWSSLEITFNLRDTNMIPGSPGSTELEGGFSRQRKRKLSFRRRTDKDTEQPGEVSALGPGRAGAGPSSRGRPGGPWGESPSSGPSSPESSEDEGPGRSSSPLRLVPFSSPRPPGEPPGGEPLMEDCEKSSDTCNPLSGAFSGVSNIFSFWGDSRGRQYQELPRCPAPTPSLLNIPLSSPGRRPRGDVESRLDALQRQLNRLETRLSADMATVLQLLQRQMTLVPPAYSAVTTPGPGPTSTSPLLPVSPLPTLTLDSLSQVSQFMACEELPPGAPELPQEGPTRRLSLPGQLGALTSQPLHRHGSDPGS

CCC(C)(C)C(=O)[O-].[Na+] [DMB, Sodium 2,2-dimethylbutyrate]
NOAEL at 14 days (in vivo [1]; female): 200 mg/kg/day | NOAEL at 14 days (in vivo [1]; male): 600 mg/kg/day | FOB effects after two-week drug free period (in vivo [1]): no residual FOB effects | maternal body weight gains and food consumption ([2]; 300 mg/kg/day): Reduced mean maternal body weight gains and corresponding reduced mean food consumption | Mean fetal weight lower than the control group ([2]; 600 mg/kg/day): 8.6% | acceptability of dosage for a definitive embryo/fetal development study ([2]; 600 mg/kg/day, maternal and embryo/fetal toxicity): considered unacceptable | maternal or fetal test article-related effects ([2]; 50 and 150 mg/kg/day): no maternal or fetal test article-related effects | maternal macroscopic findings ([2]; any dosage level): No remarkable maternal macroscopic findings | fetal weights (50, 150, 300 mg/kg/day), fetal survival and external morphology (all dosage levels) ([2]; rabbit, in vivo): unaffected | Mean Fold Increase ([3]; 0.5 mM, compared to untreated controls, p ≦ 0.01): 2.2* | γ/(γ + β) globin Expression, Range ([3]; Active Concentration 0.5 mM): 0.033-0.052 | NOAEL at 26 weeks (in vivo [4]; both sexes, Beagle): ≥ 300 mg/kg/day | NOEL (in vivo [4]; both, Beagle, 26 weeks): 50 mg/kg/day | adverse effects (in vivo [4]): no adverse effects | clinical observations (in vivo [4]): no important treatment-related clinical observations | effects on ECG measurements (in vivo [4]): No biologically significant effects | activity on hERG channel function (hERG channels): essentially no activity | maternal or fetal effects ([5]; 50 mg/kg/day): No maternal or fetal effects | postimplantation loss ([5]; 150 mg/kg/day): Increased postimplantation loss | acceptability of dosage for a definitive embryo/fetal developmental toxicity study ([5]; rat, in vivo): considered unacceptable
